Test systems include DU-145; COLO 205; MDA-N; HCC 2998; RXF 393; NCI-H460; TK-10; HOP-92; HOP-62; UO-31; SK-MEL-28; Malme-3M; KM12; SK-OV-3; SK-MEL-5; SF-539; SR; MDA-MB-231; ACHN; OVCAR-4.
What all share (test): inhibition of tumour cell growth, NCI panel, 48 h

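Cells were grown in 96-well plates and exposed to each compound for 48 hours at five concentrations; endpoints were interpolated linearly between bracketing concentrations, or set to the highest concentration if not reached. At the GI50, growth is halved.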 The source made the active and inactive calls. No stated cut-off is given here; in the data, active = GI50 up to about 1.1 µM and inactive = higher.

As to `CCCC(=O)OC(OC(=O)CCC)c1ccc([N+](=O)[O-])o1`, the GI50 in the assay with DU-145 was 36.7 µM (inactive); with COLO 205, 23.3 µM (inactive); in the assay on MDA-N, 20.1 µM (inactive); with HCC 2998, 15.9 µM (inactive); in the assay on RXF 393 it was 17.2 µM (inactive); in the assay with NCI-H460, > 100 µM (inactive). Also, the GI50 was 19.4 µM (inactive) in the assay on TK-10; 22.9 µM (inactive) in the assay with HOP-92; 62.8 µM (inactive) with HOP-62; 21.1 µM (inactive) in the assay with UO-31; 20.4 µM (inactive) in the assay with SK-MEL-28; 19.2 µM (inactive) in the assay with Malme-3M. Also, the GI50 in the assay on KM12 is 37.6 µM (inactive); with SK-OV-3, > 100 µM (inactive); with SK-MEL-5 it was 32.4 µM (inactive); in the assay with SF-539, 35.7 µM (inactive); with SR, 18 µM (inactive); in the assay with MDA-MB-231, 27.5 µM (inactive). Also, the GI50 with ACHN was 20.5 µM (inactive).

For `CC#CC(O)(C(=O)OC1CCCN(C)C1)C1=CC=CCC1` (stereo not drawn), the GI50 with DU-145, with COLO 205, with MDA-N, in the assay on HCC 2998, in the assay with RXF 393 and in the assay with NCI-H460 was > 100 µM (inactive) in each case. Further, the GI50 in the assay with OVCAR-4, in the assay with TK-10, in the assay on HOP-92, with HOP-62, in the assay on UO-31 and in the assay on SK-MEL-28 was > 100 µM (inactive) throughout. The GI50 with Malme-3M, with KM12, in the assay with SK-OV-3, with SK-MEL-5, in the assay on SF-539 and in the assay with SR was > 100 µM (inactive) each time. The GI50 in the assay with MDA-MB-231 and with ACHN was > 100 µM (inactive) each time.

`C=CCC(C(=O)O)c1ccccc1` (stereo not drawn): the GI50 with DU-145, with COLO 205, in the assay on MDA-N, in the assay on HCC 2998, in the assay with RXF 393 and with NCI-H460 was > 100 µM (inactive) in each case. Also, the GI50 with OVCAR-4, in the assay with TK-10, in the assay on HOP-92, in the assay on HOP-62, in the assay with UO-31 and in the assay with SK-MEL-28 was > 100 µM (inactive) each time. Moreover, the GI50 in the assay with Malme-3M, with KM12, in the assay with SK-OV-3, in the assay on SK-MEL-5, with SF-539 and with SR was > 100 µM (inactive) each time. Moreover, the GI50 in the assay on MDA-MB-231 and in the assay on ACHN was > 100 µM (inactive) in each case.

For the compound `O=[N+]([O-])C(/C=C(\Cl)[N+](=O)[O-])=C(Nc1ccccc1)Nc1ccccc1`, the GI50 in the assay with DU-145 is 17.1 µM (inactive); with COLO 205, 8.53 µM (inactive); with MDA-N, 5.58 µM (inactive); in the assay with HCC 2998, 21.4 µM (inactive); in the assay on RXF 393, 4.65 µM (inactive); in the assay on NCI-H460, 16.4 µM (inactive). The GI50 was 6.76 µM (inactive) in the assay on OVCAR-4; 12.8 µM (inactive) with TK-10; 4.69 µM (inactive) in the assay with HOP-92; 12.1 µM (inactive) in the assay on UO-31; 9.86 µM (inactive) in the assay with SK-MEL-28; 8.67 µM (inactive) in the assay with Malme-3M. Besides, the GI50 in the assay with KM12 was 11.9 µM (inactive); in the assay on SK-OV-3, 20.1 µM (inactive); with SK-MEL-5, 13.3 µM (inactive); in the assay on SF-539, 11.2 µM (inactive); with SR, 2.6 µM (inactive); in the assay on MDA-MB-231, 10.7 µM (inactive). Besides, the GI50 with ACHN is 13.2 µM (inactive).

`O=C(CC(=O)Nc1ccccc1)NNC(Sc1ccccc1)c1cc(/N=N/c2ccc(Br)cc2)ccc1O` (stereo not drawn): the GI50 in the assay on DU-145 was 2.11 µM (inactive); with COLO 205, 3.2 µM (inactive); in the assay on MDA-N, 2.41 µM (inactive); in the assay on HCC 2998, > 10 µM (inactive); with RXF 393 it was 2.37 µM (inactive); with NCI-H460, 0.773 µM (active). The GI50 is 1.56 µM (inactive) with OVCAR-4; 1.45 µM (inactive) in the assay on TK-10; 4.51 µM (inactive) in the assay on HOP-92; 3.08 µM (inactive) with HOP-62; 2.29 µM (inactive) with UO-31; 2.92 µM (inactive) in the assay on SK-MEL-28. The GI50 in the assay with Malme-3M is 4.26 µM (inactive); in the assay on KM12, 4.07 µM (inactive); in the assay on SK-OV-3, 4.21 µM (inactive); in the assay on SK-MEL-5 it was 1.06 µM (active); in the assay with SF-539, 1.66 µM (inactive); in the assay on SR, 0.353 µM (active). The GI50 in the assay on MDA-MB-231 is 2.24 µM (inactive); in the assay on ACHN, 2.47 µM (inactive).

In the case of `COc1ccc(C[n+]2cccc(O)c2)cc1`, the GI50 in the assay on DU-145, with MDA-N, in the assay on HCC 2998, in the assay on RXF 393, in the assay with NCI-H460 and in the assay on TK-10 was > 100 µM (inactive) throughout. Moreover, the GI50 in the assay with HOP-92, with HOP-62, in the assay with UO-31, in the assay with SK-MEL-28, with Malme-3M and in the assay with KM12 was > 100 µM (inactive) in each case. The GI50 in the assay on SK-OV-3, in the assay on SK-MEL-5, in the assay on SF-539, with SR, in the assay with MDA-MB-231 and with ACHN was > 100 µM (inactive) each time.

Take `N#Cc1[nH]c(=O)n(-c2ccc([N+](=O)[O-])cc2)c1N`: the GI50 was > 10 µM (inactive) in the assay on DU-145; > 10 µM (inactive) with COLO 205; > 10 µM (inactive) in the assay on MDA-N; > 10 µM (inactive) in the assay on HCC 2998; > 10 µM (inactive) in the assay on RXF 393; 7.64 µM (inactive) in the assay with NCI-H460. Besides, the GI50 in the assay with OVCAR-4, in the assay with TK-10, with HOP-92, in the assay with HOP-62, in the assay with UO-31 and in the assay on SK-MEL-28 was > 10 µM (inactive) throughout. Moreover, the GI50 in the assay with Malme-3M, in the assay on SK-OV-3, with SK-MEL-5, in the assay with SF-539, in the assay on SR and in the assay on MDA-MB-231 was > 10 µM (inactive) each time. In addition, in the assay on ACHN, the GI50 is > 10 µM (inactive).

Turning to `Cc1ccc(/C=N/Nc2cc(C)c3ccccc3n2)s1`, the GI50 with DU-145 was > 10 µM (inactive); in the assay on COLO 205, 4.71 µM (inactive); with MDA-N, 13.8 µM (inactive); in the assay on HCC 2998, 15.3 µM (inactive); in the assay on RXF 393, 23.3 µM (inactive); with OVCAR-4 it was 20 µM (inactive). In addition, the GI50 with TK-10 was 30.8 µM (inactive); in the assay with HOP-92, 27.2 µM (inactive); in the assay on HOP-62 it was 15.7 µM (inactive); in the assay on UO-31 it was > 100 µM (inactive); with SK-MEL-28 it was 20.3 µM (inactive); in the assay on Malme-3M it was 5.75 µM (inactive). Further, the GI50 in the assay with KM12 was 16.4 µM (inactive); in the assay with SK-OV-3, 19.3 µM (inactive); with SK-MEL-5 it was 8.3 µM (inactive); in the assay with SF-539 it was 21.3 µM (inactive); with SR, 6.38 µM (inactive); in the assay with MDA-MB-231, 0.44 µM (active). In the assay on ACHN, the GI50 is 20.1 µM (inactive).

Take `O=C(NC(Nc1ccc(F)c(Cl)c1)(C(F)(F)F)C(F)(F)F)OCc1ccccc1`: the GI50 is 24.4 µM (inactive) with DU-145; 17.8 µM (inactive) in the assay with COLO 205; 19.7 µM (inactive) in the assay on MDA-N; 22.1 µM (inactive) with HCC 2998; 43.3 µM (inactive) with RXF 393; 85.1 µM (inactive) in the assay with NCI-H460. The GI50 with TK-10 was 63.1 µM (inactive); with HOP-92, 23.2 µM (inactive); in the assay on HOP-62, 30.3 µM (inactive); with UO-31, 19.8 µM (inactive); in the assay on SK-MEL-28 it was > 100 µM (inactive); in the assay on Malme-3M, 43.5 µM (inactive). The GI50 was 36.3 µM (inactive) in the assay with KM12; 26 µM (inactive) with SK-OV-3; 44.1 µM (inactive) in the assay on SK-MEL-5; 17.6 µM (inactive) with SF-539; 11 µM (inactive) in the assay on SR; 11.7 µM (inactive) in the assay with MDA-MB-231. Further, in the assay with ACHN, the GI50 was 17.7 µM (inactive).

As for `CCN(CC)CCNc1ccc2nc(C)n3c4ccc(OC)cc4c(=O)c1c23`, the GI50 is 1.29 µM (inactive) in the assay on DU-145; 0.693 µM (active) with COLO 205; 1.41 µM (inactive) in the assay on MDA-N; 0.8 µM (active) in the assay on HCC 2998; 4.07 µM (inactive) in the assay on RXF 393; 0.538 µM (active) in the assay on NCI-H460. Moreover, the GI50 is 1.41 µM (inactive) in the assay on OVCAR-4; 0.873 µM (active) in the assay with TK-10; 5.92 µM (inactive) in the assay with HOP-92; 4.06 µM (inactive) with HOP-62; 3.08 µM (inactive) with UO-31; 10.4 µM (inactive) with SK-MEL-28. Further, the GI50 was 5.33 µM (inactive) in the assay on Malme-3M; 1.8 µM (inactive) in the assay with KM12; 5.48 µM (inactive) with SK-OV-3; 5.57 µM (inactive) with SK-MEL-5; 1.91 µM (inactive) in the assay on SF-539; 0.165 µM (active) in the assay on SR. In addition, the GI50 in the assay on MDA-MB-231 is 0.423 µM (active); with ACHN, 0.367 µM (active).

(Values after ChEMBL document CHEMBL1201862, “PubChem BioAssay data set” (2004).)
